# Test results from patent publication US20250049970A1, “DLL3 TARGETING PEPTIDES AND CONSTRUCTS THEREOF” (MARIANA ONCOLOGY INC., priority 2023, published 2025).
# *1 amine or outer side, *2 acyl side, *3 side chain or, on linkers, in order; H or OH if unused. Where a SMILES comes first, the peptide text is derived from it. Bridges are numbered along the chain shown (N, C = ends). [ ]: non-standard residue; d: D form. The star is where a group is joined. X9 = CSCC[C@H](NC(=O)c1ccc(CNC(=O)CN2CCN(CC(=O)O)CCN(CC(=O)O)CCN(CC(=O)O)CC2)cc1)C(=O)N[C@H](C(=O)N[C@@H](CCCCN*)C(=O)O)C(C)C; X7 = O=C(O)CN1CCN(CC(=O)O)CCN(CC(=O)N[C@H]2CC[C@H](CC(=O)*)CC2)CCN(CC(=O)O)CC1; Ala(piperidin-4-yl) = O=C([C@H](CC1CCN([*:3])CC1)N[*:1])[*:2]; Ala(morpholin-4-yl) = N[C@@H](CN1CCOCC1)C(=O)O; NMeW = CN[C@@H](Cc1c[nH]c2ccccc12)C(=O)O; 2Nal = N[C@@H](Cc1ccc2ccccc2c1)C(=O)O; Gly(4-THP) = N[C@H](C(=O)O)C1CCOCC1; NMeH = CN[C@@H](Cc1c[nH]cn1)C(=O)O; NMeT = CN[C@H](C(=O)O)[C@@H](C)O; NMeD = CN[C@@H](CC(=O)O)C(=O)O; NMeN = CN[C@@H](CC(N)=O)C(=O)O; Chg = N[C@H](C(=O)O)C1CCCCC1; Tle = CC(C)(C)[C@H](N)C(=O)O
# Target: T1, DLL3 (Homo sapiens, UniProt Q9NYJ7)
# T1 sequence (Q9NYJ7 27-618): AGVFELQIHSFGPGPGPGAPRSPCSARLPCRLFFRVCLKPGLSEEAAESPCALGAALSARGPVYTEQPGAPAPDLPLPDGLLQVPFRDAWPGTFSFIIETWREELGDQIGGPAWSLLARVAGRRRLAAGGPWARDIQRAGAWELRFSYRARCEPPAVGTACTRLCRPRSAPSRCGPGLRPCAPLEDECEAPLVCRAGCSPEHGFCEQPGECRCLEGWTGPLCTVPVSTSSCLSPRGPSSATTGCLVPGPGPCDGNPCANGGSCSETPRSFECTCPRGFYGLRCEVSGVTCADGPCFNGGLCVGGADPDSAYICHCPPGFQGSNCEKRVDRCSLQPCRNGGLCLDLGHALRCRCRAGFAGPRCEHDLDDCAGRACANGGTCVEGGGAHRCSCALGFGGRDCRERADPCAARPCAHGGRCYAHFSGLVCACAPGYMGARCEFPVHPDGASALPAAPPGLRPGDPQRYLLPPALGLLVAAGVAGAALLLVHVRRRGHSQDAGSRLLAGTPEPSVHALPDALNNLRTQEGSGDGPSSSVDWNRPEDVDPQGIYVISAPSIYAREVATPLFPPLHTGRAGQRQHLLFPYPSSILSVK
# Assay: SPR KD, biotinylated human DLL3 on streptavidin chip (Table 8)
# Design: biotin (biotinylated)
# Conditions: biotinylated human DLL3 on streptavidin sensor chip, 25° C., 1:1 binding model; read-out: SPR KD
# Description: Biotinylated target ligand human DLL3 was immobilized on a streptavidin sensor chip. A reference surface was set up for nonspecific binding and refractive index changes. […] Sensorgram curves were fitted with 1:1 binding model, and affinity and kinetic parameters were obtained using Biacore Insight evaluation 4.0. software.
row,Structure (SMILES),Kd
1,CSCC[C@H](NC(=O)c1ccc(CNC(=O)CN2CCN(CC(=O)O)CCN(CC(=O)O)CCN(CC(=O)O)CC2)cc1)C(=O)N[C@H](C(=O)N[C@@H](CCCCNC(=O)CC[C@@H]1NC(=O)[C@H](Cc2ccc3ccccc3c2)NC(=O)[C@H](CC(N)=O)NC(=O)[C@H](CC2CCNCC2)NC(=O)[C@@H](NC(=O)[C@@H](NC(=O)[C@@H](NC(=O)[C@H](Cc2c[nH]c3ccccc23)NC(C)=O)[C@@H](C)O)C(C)(C)C)CSSC[C@@H](C(=O)N[C@@H](Cc2c[nH]c3ccccc23)C(=O)N2CCC[C@H]2C(N)=O)NC(=O)[C@H](CC(=O)O)NC1=O)C(=O)O)C(C)C [compound 377] (Ac-WT[Tle]C[Ala(piperidin-4-yl)]N[2Nal]E(X9)DCWP-NH2; disulfide 4-10),1 to 10 nM
2,"CSCC[C@H](NC(=O)c1ccc(CNC(=O)CN2CCN(CC(=O)O)CCN(CC(=O)O)CCN(CC(=O)O)CC2)cc1)C(=O)N[C@H](C(=O)N[C@@H](CCCCNC(=O)CC[C@@H]1NC(=O)[C@H](Cc2ccc3ccccc3c2)NC(=O)[C@H](CC(N)=O)NC(=O)[C@H](CC2CCNCC2)NC(=O)[C@@H](NC(=O)[C@@H](NC(=O)[C@@H](NC(=O)[C@H](Cc2c[nH]c3ccccc23)NC(C)=O)[C@@H](C)O)C2CCOCC2)CSSC[C@@H](C(=O)N[C@@H](Cc2c[nH]c3ccccc23)C(=O)N2CCC[C@H]2C(N)=O)NC(=O)[C@H](CC(=O)O)NC1=O)C(=O)O)C(C)C [compound 378, Ac-W-T-(THPG)-C(3)-[3-(4-piperidinyl)-Ala]-N-(2Nal)-[Glu(gLys(OH)-Val-Met-AmBz-DOTA)]-D-C(3)-W-P-CONH2] (Ac-WT[Gly(4-THP)]C[Ala(piperidin-4-yl)]N[2Nal]E(X9)DCWP-NH2; disulfide 4-10)",1 to 10 nM
3,"CC(=O)N[C@@H](Cc1c[nH]c2ccccc12)C(=O)N[C@H](C(=O)N[C@H](C(=O)N[C@H]1CSSC[C@@H](C(=O)N[C@@H](Cc2c[nH]c3ccccc23)C(=O)N2CCC[C@H]2C(N)=O)NC(=O)[C@H](CC(=O)O)NC(=O)[C@H](CCCCNC(=O)C[C@H]2CC[C@H](NC(=O)CN3CCN(CC(=O)O)CCN(CC(=O)O)CCN(CC(=O)O)CC3)CC2)NC(=O)[C@H](Cc2ccc3ccccc3c2)NC(=O)[C@H](CC(N)=O)NC(=O)[C@H](CC2CCNCC2)NC1=O)C1CCCCC1)[C@@H](C)O [compound 379, Ac-W-T-(Chg)-C(3)-[3-(4-piperidinyl)-Ala]-N-(2Nal)-Lys(Chx-DOTA)-D-C(3)-W-P-CONH2] (Ac-WT[Chg]C[Ala(piperidin-4-yl)]N[2Nal]K(X7)DCWP-NH2; disulfide 4-10)",< 1 nM
4,"CC(=O)N[C@@H](Cc1c[nH]c2ccccc12)C(=O)N[C@H](C(=O)N[C@H](C(=O)N[C@H]1CSSC[C@@H](C(=O)N[C@@H](Cc2c[nH]c3ccccc23)C(=O)N2CCC[C@H]2C(N)=O)NC(=O)[C@H](CC(=O)O)NC(=O)[C@H](CCCCNC(=O)C[C@H]2CC[C@H](NC(=O)CN3CCN(CC(=O)O)CCN(CC(=O)O)CCN(CC(=O)O)CC3)CC2)NC(=O)[C@H](Cc2ccc3ccccc3c2)NC(=O)[C@H](CC(N)=O)NC(=O)[C@H](CN2CCOCC2)NC1=O)C1CCCCC1)[C@@H](C)O [compound 380, Ac-W-T-(Chg)-C(3)-[3-(1-morpholinyl)-Ala]-N-(2Nal)-Lys(Chx-DOTA)-D-C(3)-W-P-CONH2] (Ac-WT[Chg]C[Ala(morpholin-4-yl)]N[2Nal]K(X7)DCWP-NH2; disulfide 4-10)",< 1 nM
5,"CSCC[C@H](NC(=O)c1ccc(CNC(=O)CN2CCN(CC(=O)O)CCN(CC(=O)O)CCN(CC(=O)O)CC2)cc1)C(=O)N[C@H](C(=O)N[C@@H](CCCCNC(=O)CC[C@@H]1NC(=O)[C@H](Cc2ccc3ccccc3c2)NC(=O)[C@H](CC(N)=O)NC(=O)[C@H](CC2CCNCC2)NC(=O)[C@@H](NC(=O)[C@@H](NC(=O)[C@@H](NC(=O)[C@H](Cc2c[nH]c3ccccc23)NC(C)=O)[C@@H](C)O)C2CCCCC2)CSSC[C@@H](C(=O)N[C@@H](Cc2c[nH]c3ccccc23)C(=O)N2CCC[C@H]2C(N)=O)NC(=O)[C@H](CC(=O)O)NC1=O)C(=O)O)C(C)C [compound 381, Ac-W-T-(Chg)-C(3)-[3-(4-piperidinyl)-Ala]-N-(2Nal)-[Glu(gLys(OH)-Val-Met-AmBz-DOTA)]-D-C(3)-W-P-CONH2] (Ac-WT[Chg]C[Ala(piperidin-4-yl)]N[2Nal]E(X9)DCWP-NH2; disulfide 4-10)",< 1 nM
6,"CC[C@H](C)[C@H](NC(=O)[C@@H](NC(=O)[C@H](Cc1c[nH]c2ccccc12)N(C)C(C)=O)[C@@H](C)O)C(=O)N[C@H]1CSSC[C@@H](C(=O)N[C@@H](Cc2c[nH]c3ccccc23)C(=O)N2CCC[C@H]2C(=O)O)NC(=O)[C@H](CC(=O)O)NC(=O)[C@H](Cc2c[nH]cn2)NC(=O)[C@H](Cc2c[nH]c3ccccc23)NC(=O)[C@H](CC(N)=O)NC(=O)[C@H](CC(N)=O)NC1=O [compound 382, Ac-(NmeW)-T-I-C(3)-N-N-W-H-D-C(3)-W-P-CONH2] (Ac-[NMeW]TICNNWHDCWP-OH; disulfide 4-10)",10 to 100 nM
7,"CC[C@H](C)[C@H](NC(=O)[C@H]([C@@H](C)O)N(C)C(=O)[C@H](Cc1c[nH]c2ccccc12)NC(C)=O)C(=O)N[C@H]1CSSC[C@@H](C(=O)N[C@@H](Cc2c[nH]c3ccccc23)C(=O)N2CCC[C@H]2C(N)=O)NC(=O)[C@H](CC(=O)O)NC(=O)[C@H](Cc2cnc[nH]2)NC(=O)[C@H](Cc2c[nH]c3ccccc23)NC(=O)[C@H](CC(N)=O)NC(=O)[C@H](CC(N)=O)NC1=O [compound 383, Ac-W-(NmeT)-I-C(3)-N-N-W-H-D-C(3)-W-P-CONH2] (Ac-W[NMeT]ICNNWHDCWP-NH2; disulfide 4-10)",100 to 300 nM
8,"CC[C@H](C)[C@H](NC(=O)[C@@H](NC(=O)[C@H](Cc1c[nH]c2ccccc12)NC(C)=O)[C@@H](C)O)C(=O)N[C@H]1CSSC[C@@H](C(=O)N[C@@H](Cc2c[nH]c3ccccc23)C(=O)N2CCC[C@H]2C(=O)O)NC(=O)[C@H](CC(=O)O)NC(=O)[C@H](Cc2c[nH]cn2)NC(=O)[C@H](Cc2c[nH]c3ccccc23)NC(=O)[C@H](CC(=O)O)NC(=O)[C@H](CC(N)=O)N(C)C1=O [compound 384, Ac-W-T-I-C(3)-(NmeN)-N-W-H-D-C(3)-W-P-CONH2] (Ac-WTIC[NMeN]DWHDCWP-OH; disulfide 4-10)",10 to 100 nM
9,"CC[C@H](C)[C@H](NC(=O)[C@@H](NC(=O)[C@H](Cc1c[nH]c2ccccc12)NC(C)=O)[C@@H](C)O)C(=O)N[C@H]1CSSC[C@@H](C(=O)N[C@@H](Cc2c[nH]c3ccccc23)C(=O)N2CCC[C@H]2C(=O)O)NC(=O)[C@H](CC(=O)O)NC(=O)[C@H](Cc2c[nH]cn2)NC(=O)[C@H](Cc2c[nH]c3ccccc23)NC(=O)[C@H](CC(N)=O)N(C)C(=O)[C@H](CC(N)=O)NC1=O [compound 385, Ac-W-T-I-C(3)-N-(NmeN)-W-H-D-C(3)-W-P-CONH2] (Ac-WTICN[NMeN]WHDCWP-OH; disulfide 4-10)",10 to 100 nM
10,"CC[C@H](C)[C@H](NC(=O)[C@@H](NC(=O)[C@H](Cc1c[nH]c2ccccc12)NC(C)=O)[C@@H](C)O)C(=O)N[C@H]1CSSC[C@@H](C(=O)N[C@@H](Cc2c[nH]c3ccccc23)C(=O)N2CCC[C@H]2C(=O)O)NC(=O)[C@H](CC(=O)O)NC(=O)[C@H](Cc2c[nH]cn2)NC(=O)[C@H](Cc2c[nH]c3ccccc23)N(C)C(=O)[C@H](CC(N)=O)NC(=O)[C@H](CC(N)=O)NC1=O [compound 386, Ac-W-T-I-C(3)-N-N-(NmeW)-H-D-C(3)-W-P-CONH2] (Ac-WTICNN[NMeW]HDCWP-OH; disulfide 4-10)",100 to 300 nM
11,"CC[C@H](C)[C@H](NC(=O)[C@@H](NC(=O)[C@H](Cc1c[nH]c2ccccc12)NC(C)=O)[C@@H](C)O)C(=O)N[C@H]1CSSC[C@@H](C(=O)N[C@@H](Cc2c[nH]c3ccccc23)C(=O)N2CCC[C@H]2C(N)=O)NC(=O)[C@H](CC(=O)O)NC(=O)[C@H](Cc2cnc[nH]2)N(C)C(=O)[C@H](Cc2c[nH]c3ccccc23)NC(=O)[C@H](CC(N)=O)NC(=O)[C@H](CC(N)=O)NC1=O [compound 387, Ac-W-T-I-C(3)-N-N-W-(NmeH)-D-C(3)-W-P-CONH2] (Ac-WTICNNW[NMeH]DCWP-NH2; disulfide 4-10)",10 to 100 nM
12,"CC[C@H](C)[C@H](NC(=O)[C@@H](NC(=O)[C@H](Cc1c[nH]c2ccccc12)NC(C)=O)[C@@H](C)O)C(=O)N[C@H]1CSSC[C@@H](C(=O)N[C@@H](Cc2c[nH]c3ccccc23)C(=O)N2CCC[C@H]2C(N)=O)NC(=O)[C@H](CC(=O)O)N(C)C(=O)[C@H](Cc2cnc[nH]2)NC(=O)[C@H](Cc2c[nH]c3ccccc23)NC(=O)[C@H](CC(N)=O)NC(=O)[C@H](CC(N)=O)NC1=O [compound 388, Ac-W-T-I-C(3)-N-N-W-H-(NmeD)-C(3)-W-P-CONH2] (Ac-WTICNNWH[NMeD]CWP-NH2; disulfide 4-10)",100 to 300 nM
13,"CC[C@H](C)[C@H](NC(=O)[C@@H](NC(=O)[C@H](Cc1c[nH]c2ccccc12)NC(C)=O)[C@@H](C)O)C(=O)N[C@H]1CSSC[C@@H](C(=O)N(C)[C@@H](Cc2c[nH]c3ccccc23)C(=O)N2CCC[C@H]2C(=O)O)NC(=O)[C@H](CC(=O)O)NC(=O)[C@H](Cc2c[nH]cn2)NC(=O)[C@H](Cc2c[nH]c3ccccc23)NC(=O)[C@H](CC(N)=O)NC(=O)[C@H](CC(N)=O)NC1=O [compound 389, Ac-W-T-I-C(3)-N-N-W-H-D-C(3)-(NmeW)-P-CONH2] (Ac-WTICNNWHDC[NMeW]P-OH; disulfide 4-10)",100 to 300 nM
